Experimental data published in patent publication US10590166B2, “Peptides useable for treating cancer” (Allegro Pharmaceuticals, LLC, priority 2009, dated 2020).
Where “and” joins values, the source holds several entries; their conditions need not be identical. Equal values may be shown once. Read-outs that look alike come from different tables or passages of the source. Square brackets hold non-standard residues; d marks the D form. Peptide text beside a SMILES is read from it. Cya = N[CH](CS(=O)(=O)O)C(=O)O

How the values were obtained:
[1] = system: human umbilical vein endothelial cells (HUVEC); experiment: wound-healing assay with HUVEC on fibronectin coated surface; type: cell-based
Protocol: To test the anti-adhesive properties of RGCysteic Acid peptides in vitro, a wound-healing assay was performed with human umbilical vein endothelial cells (HUVEC). HUVEC were seeded and allowed to grow to a confluent monolayer on a fibronectin coated surface. A wound (a scratch rift) was created by dragging a small pipette tip across the HUVEC monolayer. The cells were then incubated in fresh growth medium containing the RGCysteic Acid peptide (Compound 1; 10 mM), and the wound area was imaged in five different fields at various time points (0, 4, 8, 12, 16, 20, 24 hours) to determine the kinetics of wound closure. The level of wound closure was quantified by determining the fraction of the original wound area that was re-occupied by HUVEC through cellular adhesion, migration and proliferation.
In control studies, the following peptides were used in place of RGCysteic Acid (Compound 1): cyclic-RGD peptide (1 mM), positive control) and RGE peptide (1 mM, negative control).
The results are shown as a percentage of the original area. The error bars correspond to the standard deviation in wound size across 2-6 independent trials.

CNV mouse model = experiment: Suppression of laser-induced choroidal neovascularization, CNV mouse model; type: in vivo; details: 14 days after laser; for size of CNV lesions: vs vehicle
Protocol: In this example, Compound 1 was tested to determine whether it CNV in a published mouse model. See, Umeda N, Kachi S, Akiyama H, Zahn G, Vossmeyer D, Stragies R, Campochiaro P., Suppression and Regression of Choroidal Neovascularization by Systemic Administration of an α5β1 Integrin Antagonist: Molecular Pharmacology:2006, 69, 1820-1828.
The study mice had laser-induced rupture of Bruch's membrane followed by an intravitreal injection of a single dose of COMPOUND 1 at the concentration of 1.0 μg/1 μL, 25 μg/1 μL and at 50 μg/1 μL, as well as a vehicle immediately after laser treatment. Fourteen days after laser treatment, the area of CNV was measured by image analysis. […] FIG. 8 is a graph showing total area of neovascularization in a CNV mouse model 14 days after treatment with various doses of Compound 1 and control (vehicle only).

New Zealand Rabbits [2] = experiment: Ocular toxicity of intravitreal Compound 1 with and without urea (Table A); type: in vivo; details: 24 hour follow up
New Zealand Rabbits [3] = experiment: Ocular toxicity of subconjunctival Compound 1 (Table C); type: in vivo; details: single subconjunctival 5.0 mg/100 μL, 48 hour follow up
[4] = system: Pigmented New Zealand Rabbits; experiment: Ocular toxicity dose escalation, multiple intravitreal injections of Compound 1 (Table E); type: in vivo; details: up to 3 intravitreal injections of 2.5, 5.0 or 10.0 mg/100 μL
[5] = system: human subjects with diabetic macular edema; type: in vivo; details: for persistence of improvements in BCVA and OCT central macular thickness off treatment: follow up after the last intravitreal treatment
Protocol: Fifteen human patients with late stage DME received three monthly intravitreal injections of Compound 1 as part of a multiple-injection Phase 1 Human Safety Study. […] While this study was firstly a safety study, efficacy was also assessed. Eight of the patients patients improved three or more lines in BCVA (representing 53% of the treated patients) and four of the patients improved from nearly legally blind to functional vision in the 20/40 to 20/60 range. […] These improvements in BCVA and OCT central macular thickness persisted for 90 days of follow up off treatment.
The objective of the Phase 1 study was to evaluate the safety and initial efficacy of the ophthalmic intravitreal injection of COMPOUND 1 in human subjects with end stage diabetic macular edema (DME). The primary endpoint of this study was the observation of dose limiting toxicity. A secondary endpoint of this study was observation of a clinical benefit in reducing the diabetic macular edema in BCVA (ETDRS lines) and OCT central macular thickness.
Fifteen human subjects with chronic end-stage DME completed this open label study. Subjects at enrollment had BCVA of 20/100 or worse primarily due to DME and had not undergone anti-VEGF treatment or focal laser within 90 days prior to enrollment. Many study subjects were refractory to previous Avastin treatments. Study subjects received three monthly intravitreal injections of 2.5 mg COMPOUND 1 and were followed monthly for an additional 3 months. Safety measurements were followed by BCVA, slit lamp evaluation, dilated fundus exam, 10P measurements, OCT, FA, Fundus Photos, B-scan ultrasound, and ERG.

rho/VEGF mice = experiment: Subretinal neovascularization in transgenic rho/VEGF mice expressing human VEGF; type: in vivo; details: 25 μg, single intraocular injection, seven days post-dose, 3 animals
Protocol: Transgenic mice in which the rhodopsin promoter drives expression of human VEGF in photoreceptors (rho/VEGF mice) were randomized into separate treatment groups and studies were performed to provide the following comparisons:
Pretreatment measurements of the area of subretinal neovascularization were made on each animal using image analysis by a masked observer. Each animal received its designated treatment in a single intraocular injection. Seven days post-dose, measurements of the area of subretinal neovascularization were again made and compared to the pre-dose measurements to determine the change in subretinal neovascularization area. Also, the animals were sacrificed and the retinas were dissected, immunostained with GSA lectin and examined by fluorescence microscopy.

[6] = single intravitreal 2.5 mg/100 μL
[7] = single intravitreal injection, 8 eyes per group
[8] = 15 DME patients, three monthly intravitreal injections of 2.5 mg
[9] = 15 DME patients, three monthly intravitreal injections of 2.5 mg, listed as COMPOUND 1

Structure (SMILES): CC(O)C(NC(=O)C(CS(=O)(=O)O)NC(=O)CNC(=O)C(CCCNC(=N)N)NC(=O)CN)C(=O)N1CCCC1C(=O)O (stereo not shown) [Compound 1, Glycinyl-Arginyl-Glycinyl-Cysteic-Threonyl-Proline-COOH] (H-GRG[Cya]TP-OH; configuration not given here)
- inhibition of cell adhesion ([1]; HUVEC wound healing model, in 12 hours): 74%
- inhibition of HUVEC wound healing ([1]; after 24 hours, Compound 1 10 mM, control peptides 1 mM): 70%
- apoptosis of the HUVEC cells ([1]; wound healing assay): without apoptosis
- size of CNV lesions (CNV mouse model; single intravitreal 1.0 μg/1 μL): somewhat smaller
- reduction in CNV compared to vehicle treated eyes (CNV mouse model; single intravitreal 25 μg/1 μL, statistically significant): 43%
- size of CNV lesions (CNV mouse model; single intravitreal 50 μg/1 μL): somewhat smaller
- Ocular toxicity: RPE toxicity (New Zealand Rabbits [2]; [6]): No RPE toxicity
- Ocular toxicity: cataract formation (New Zealand Rabbits [2]; [6]): No cataract
- Ocular toxicity: exudates (New Zealand Rabbits [2]; [6]): No exudates
- Ocular toxicity: inflammation (New Zealand Rabbits [2]; [6]): No inflammation
- Ocular toxicity: retinal hemorrhage (New Zealand Rabbits [2]; [6]): No retinal
- Ocular toxicity: retinal tears, breaks or detachments (New Zealand Rabbits [2]; [6]): No retinal tears,
- Ocular toxicity: retinal vascular compromise (New Zealand Rabbits [2]; [6]): No retinal
- Total PVD (New Zealand Rabbits [2]; [7]): 75% Total PVD
- Vitreous liquefaction (New Zealand Rabbits [2]; [7]): Complete
- Ocular toxicity: RPE toxicity (New Zealand Rabbits [3]): No RPE toxicity
- Ocular toxicity: cataract formation (New Zealand Rabbits [3]): No cataract
- Ocular toxicity: exudates (New Zealand Rabbits [3]): No exudates
- Ocular toxicity: inflammation (New Zealand Rabbits [3]): No inflammation
- Ocular toxicity: retinal hemorrhage (New Zealand Rabbits [3]): No retinal
- Ocular toxicity: retinal tears, breaks or detachments (New Zealand Rabbits [3]): No retinal tears,
- Ocular toxicity: retinal vascular compromise (New Zealand Rabbits [3]): No retinal vascular
- Total PVD (New Zealand Rabbits [3]; 3 eyes): 0% Total PVD
- Vitreous liquefaction (New Zealand Rabbits [3]; 3 eyes): No liquefaction
- Tonometry, average for treated eyes [4]: 12.7 mmHg average
- Ocular toxicity: RPE toxicity ([4]; sacrifice Day 7, 37 or 90): No RPE toxicity
- Ocular toxicity: cataract formation ([4]; sacrifice Day 7, 37 or 90): No cataract
- Ocular toxicity: exudates ([4]; sacrifice Day 7, 37 or 90): No exudates
- Ocular toxicity: inflammation ([4]; sacrifice Day 7, 37 or 90): No inflammation
- Ocular toxicity: retinal hemorrhage ([4]; sacrifice Day 7, 37 or 90): No retinal
- Ocular toxicity: retinal tears, breaks or detachments ([4]; sacrifice Day 7, 37 or 90): No retinal tears,
- Ocular toxicity: retinal vascular compromise ([4]; sacrifice Day 7, 37 or 90): No retinal vascular
- number of patients with no material increase in CMT ([5]; 15 DME patients): 7 out of 15 patients
- number of subjects with no material change in BCVA ([5]; 15 DME patients): 7 out of 15 subjects
- share of treated patients improved three or more lines in BCVA ([5]; 15 DME patients, by study day 90 after 3 intravitreal injections of 2.5 mg): 53%
- number of patients improved from nearly legally blind to functional vision in the 20/40 to 20/60 range ([5]; 15 DME patients, three monthly intravitreal injections): four
- number of patients with reduction in CMT by 30% to 80% [5, 8]: eight
- number of subjects improved BCVA by three or more (three to five) lines [5, 8]: Eight
- share of subjects with reduction in OCT central macular thickness of at least 30% [5, 8]: 53%
- number of patients with reduction in CMT by 30% to 80% [5, 9]: 8 out of 15 and 8 of 15 patients
- number of subjects improved BCVA by three or more (three to five) lines [5, 9]: 8 out of 15 and 8 of 15 subjects
- maximum reduction in macular edema (OCT) ([5]; 608 to 103): 505 microns
- maximum reduction in macular edema (OCT), relative ([5]; 608 to 103 microns): ~80%
- persistence of improvements in BCVA and OCT central macular thickness off treatment [5]: 90 days
- persistence of improvements in BCVA and OCT central macular thickness off treatment ([5]; listed as COMPOUND 1): at least 90 days
- ERG changes ([5]; in vivo): No ERG changes
- corneal decompensation or cataract progression ([5]; in vivo): No corneal decompensation or cataract progression
- elevations in IOP ([5]; in vivo): No sustained elevations in IOP
- inflammatory reactions in the anterior chamber or vitreous cavity ([5]; in vivo): no reports of inflammatory reactions
- retinal tears or retinal detachments ([5]; in vivo): No retinal tears or retinal detachments
- vascular occlusions ([5]; in vivo): no vascular occlusions
- greater reduction in subretinal neovascularization area than control animals (Phosphate Buffered Saline) (rho/VEGF mice): 37.06%
